# In patent US20250326712A1, “IONIZABLE LIPIDS” (eTheRNA immunotherapies NV, priority 2022, published 2025):
# Test system: not listed separately
# Assay: LNP size and polydispersity measured with a Zetasizer Nano
# Format: physicochemical
# Conditions: LNP: ionizable lipid/DSPC/cholesterol/DMG-PEG2000 about 50/10/38.5/1.5, eGFP mRNA, dialyzed against TBS
# Description: (§1) Lipid based nanoparticles were produced by microfluidic mixing of an mRNA solution in sodium acetate buffer (100 mM, pH 4) and lipid solution in a 2:1 volume ratio at a speed of 16 mL/min using the NanoAssemblr Benchtop (Precision Nanosystems). LNPs were produced at a standard molar ratio ionizable lipid/DSPC (Avanti Polar Lipids)/cholesterol (Sigma)/DMG-PEG2000 (Avanti Polar Lipids) of about 50/10/38.5/1.5. eGFP mRNA was encapsulated in all LNPs as reporter mRNA, at a mRNA/ionizable lipid molar ratio of 1/10. LNPs were dialyzed against TBS (10000 times more TBS volume than LNP volume) using slide-a-lyzer dialysis cassettes (20K MWCO, 3 mL, ThermoFisher). Size, polydispersity and zeta potential were measured with a Zetasizer Nano (Malvern). mRNA encapsulation was measured by standard Ribogreen RNA assay (Invitrogen).
row,PDI,Structure (SMILES)
1,0.099,CCCCCC/C=C\COC(=O)CCCCCCCN(CCCCCCCC(=O)OC(CCCCCCCC)CCCCCCCC)C(=O)OCCSSCCOC(=O)NCCN1CCCCCC1 [ETG-52]
2,0.150,CCCCCCCCCOC(=O)CCCCCCCN(CCCCCCCC(=O)OC(CCCCCCCC)CCCCCCCC)C(=O)OCCSSCCOC(=O)NCCN1CCCCCC1 [ETG-54]
3,0.120,CCCCCCCCC(CC)OC(=O)CCCCCCCN(CCCCCCCC(=O)OC(CCCCCCCC)CCCCCCCC)C(=O)OCCSSCCOC(=O)NCCN1CCCCCC1 (stereo not shown) [ETG-56]
4,0.086,CCCCCCCCC(CCCCCCCC)OC(=O)CCCCCCCN(CCCCCC(=O)OC(CCCCCCCC)CCCCCCCC)C(=O)OCCSSCCOC(=O)NCCN1CCCCCC1 [ETG-58]

# Second part, the compound before the results:
row,Structure (SMILES),PDI
1,"CCCCCCCC/C=C\CCCCCCCC(=O)OCC(CNC(=O)OCCSSCCOC(=O)NCCN1CCCCCC1)OC(=O)CCCCCCC/C=C\CCCCCCCC (stereo not shown) [ETG-23, reference compound]",0.082
2,CCCCCC/C=C\COC(=O)CCCCCCCN(CCCCCCCC(=O)OC(CCCCCCCC)CCCCCCCC)C(=O)OCCSSCCOC(=O)NCCN(C)C [ETG-51],0.119
3,CCCCCCCCCOC(=O)CCCCCCCN(CCCCCCCC(=O)OC(CCCCCCCC)CCCCCCCC)C(=O)OCCSSCCOC(=O)NCCN(C)C [ETG-53],0.085
4,CCCCCCCCC(CC)OC(=O)CCCCCCCN(CCCCCCCC(=O)OC(CCCCCCCC)CCCCCCCC)C(=O)OCCSSCCOC(=O)NCCN(C)C (stereo not shown) [ETG-55],0.123
5,CCCCCCCCC(CCCCCCCC)OC(=O)CCCCCCCN(CCCCCC(=O)OC(CCCCCCCC)CCCCCCCC)C(=O)OCCSSCCOC(=O)NCCN(C)C [ETG-57],0.114

# Same assay, conditions: LNP: ionizable lipid/DSPC/cholesterol/DMG-PEG2000 about 50/10/38.5/1.5, eGFP mRNA, dialyzed against TBS; in nm (unit assumed)
row,size,Structure (SMILES)
1,90.70,CCCCCC/C=C\COC(=O)CCCCCCCN(CCCCCCCC(=O)OC(CCCCCCCC)CCCCCCCC)C(=O)OCCSSCCOC(=O)NCCN1CCCCCC1 [ETG-52]
2,90.30,CCCCCCCCCOC(=O)CCCCCCCN(CCCCCCCC(=O)OC(CCCCCCCC)CCCCCCCC)C(=O)OCCSSCCOC(=O)NCCN1CCCCCC1 [ETG-54]
3,86.26,CCCCCCCCC(CC)OC(=O)CCCCCCCN(CCCCCCCC(=O)OC(CCCCCCCC)CCCCCCCC)C(=O)OCCSSCCOC(=O)NCCN1CCCCCC1 (stereo not shown) [ETG-56]
4,101.50,CCCCCCCCC(CCCCCCCC)OC(=O)CCCCCCCN(CCCCCC(=O)OC(CCCCCCCC)CCCCCCCC)C(=O)OCCSSCCOC(=O)NCCN1CCCCCC1 [ETG-58]

# Second part, the compound before the results:
row,Structure (SMILES),size
1,"CCCCCCCC/C=C\CCCCCCCC(=O)OCC(CNC(=O)OCCSSCCOC(=O)NCCN1CCCCCC1)OC(=O)CCCCCCC/C=C\CCCCCCCC (stereo not shown) [ETG-23, reference compound]",75.97
2,CCCCCC/C=C\COC(=O)CCCCCCCN(CCCCCCCC(=O)OC(CCCCCCCC)CCCCCCCC)C(=O)OCCSSCCOC(=O)NCCN(C)C [ETG-51],111.97
3,CCCCCCCCCOC(=O)CCCCCCCN(CCCCCCCC(=O)OC(CCCCCCCC)CCCCCCCC)C(=O)OCCSSCCOC(=O)NCCN(C)C [ETG-53],103.23
4,CCCCCCCCC(CC)OC(=O)CCCCCCCN(CCCCCCCC(=O)OC(CCCCCCCC)CCCCCCCC)C(=O)OCCSSCCOC(=O)NCCN(C)C (stereo not shown) [ETG-55],93.73
5,CCCCCCCCC(CCCCCCCC)OC(=O)CCCCCCCN(CCCCCC(=O)OC(CCCCCCCC)CCCCCCCC)C(=O)OCCSSCCOC(=O)NCCN(C)C [ETG-57],109.10

# Test system: not listed separately
# Assay: mRNA encapsulation by Ribogreen RNA assay
# Format: physicochemical
# Conditions: LNP: ionizable lipid/DSPC/cholesterol/DMG-PEG2000 about 50/10/38.5/1.5, eGFP mRNA, mRNA/ionizable lipid 1/10
# Description: as §1
row,% encap [%],Structure (SMILES)
1,97,CCCCCC/C=C\COC(=O)CCCCCCCN(CCCCCCCC(=O)OC(CCCCCCCC)CCCCCCCC)C(=O)OCCSSCCOC(=O)NCCN1CCCCCC1 [ETG-52]
2,98,CCCCCCCCCOC(=O)CCCCCCCN(CCCCCCCC(=O)OC(CCCCCCCC)CCCCCCCC)C(=O)OCCSSCCOC(=O)NCCN1CCCCCC1 [ETG-54]
3,98,CCCCCCCCC(CC)OC(=O)CCCCCCCN(CCCCCCCC(=O)OC(CCCCCCCC)CCCCCCCC)C(=O)OCCSSCCOC(=O)NCCN1CCCCCC1 (stereo not shown) [ETG-56]
4,98,CCCCCCCCC(CCCCCCCC)OC(=O)CCCCCCCN(CCCCCC(=O)OC(CCCCCCCC)CCCCCCCC)C(=O)OCCSSCCOC(=O)NCCN1CCCCCC1 [ETG-58]

# Second part, the compound before the results:
row,Structure (SMILES),% encap [%]
1,"CCCCCCCC/C=C\CCCCCCCC(=O)OCC(CNC(=O)OCCSSCCOC(=O)NCCN1CCCCCC1)OC(=O)CCCCCCC/C=C\CCCCCCCC (stereo not shown) [ETG-23, reference compound]",97
2,CCCCCC/C=C\COC(=O)CCCCCCCN(CCCCCCCC(=O)OC(CCCCCCCC)CCCCCCCC)C(=O)OCCSSCCOC(=O)NCCN(C)C [ETG-51],96
3,CCCCCCCCCOC(=O)CCCCCCCN(CCCCCCCC(=O)OC(CCCCCCCC)CCCCCCCC)C(=O)OCCSSCCOC(=O)NCCN(C)C [ETG-53],97
4,CCCCCCCCC(CC)OC(=O)CCCCCCCN(CCCCCCCC(=O)OC(CCCCCCCC)CCCCCCCC)C(=O)OCCSSCCOC(=O)NCCN(C)C (stereo not shown) [ETG-55],96
5,CCCCCCCCC(CCCCCCCC)OC(=O)CCCCCCCN(CCCCCC(=O)OC(CCCCCCCC)CCCCCCCC)C(=O)OCCSSCCOC(=O)NCCN(C)C [ETG-57],95

# Test system: hEPO expression
# Assay: In vivo hEPO expression after IV mRNA LNP injection (hEPO ELISA)
# Design: species or system BALB/c mice
# Conditions: hEPO mRNA LNPs, 10 μg mRNA intravenous in tail vein, different timepoints, FIGS. 3 A & B
# Description: LNPs were produced at a standard molar ratio ionizable lipid/DSPC/cholesterol/DMG-PEG2000 of about 50/10/38.5/1.5. Human erythropoietin (hEPO) mRNA was encapsulated in all LNPs at an mRNA/ionizable lipid molar ratio of 1/10.
# BALB/c mice (female, 6 weeks old mice) were injected intravenously in the tail vein with 200 μl of the respective mRNA LNPs (10 μg mRNA, TBS buffer) or control buffer. Blood was collected from the submandibular vein at different timepoints after which hEPO concentrations were determined using hEPO ELISA assay kit (catalog #BMS2035-2—Thermofisher Scientific), according to the manufacturer's instructions.
row,Structure (SMILES),"hEPO expression (serum concentration, area under curve)"
1,CCCCCCCCCOC(=O)CCCCCCCN(CCCCCCCC(=O)OC(CCCCCCCC)CCCCCCCC)C(=O)OCCSSCCOC(=O)NCCN(C)C [ETG-53],higher hEPO expression compared to ETG-23 control
